Results from ChEMBL document CHEMBL1201861, “Genomics of Drug Sensitity in Cancer screening data, Wellcome Trust Sanger Institute”.

system: LAN-6; test: cells; assay type: functional, cell-based, Homo sapiens; conditions: Homo sapiens, LAN-6;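 note: growth inhibition of LAN-6 cells, determined with a cell viability assay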
Description: SANGER: Inhibition of human LAN-6 cell growth in a cell viability assay.

Compound	IC50 [µM]
CC(C)CCN1c2nc(Nc3cc(F)c(O)c(F)c3)ncc2N(C)C(=O)C1C (stereo unspecified)	> 5

system: SNB-75; test: cells; assay type: functional, cell-based, Homo sapiens; conditions: Homo sapiens, SNB-75;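 note: cell viability assay measuring growth inhibition of human SNB-75 cells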
Description: SANGER: Inhibition of human SNB75 cell growth in a cell viability assay.

Compound	IC50 [µM]
CC(C)CCN1c2nc(Nc3cc(F)c(O)c(F)c3)ncc2N(C)C(=O)C1C (stereo unspecified)	> 5

system: ML-2; test: cells; assay type: functional, cell-based, Homo sapiens; conditions: Homo sapiens, ML-2;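 note: growth inhibition of ML-2 cells, measured with a cell viability readout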
Description: SANGER: Inhibition of human ML-2 cell growth in a cell viability assay.

Compound	IC50 [µM]
CC(C)CCN1c2nc(Nc3cc(F)c(O)c(F)c3)ncc2N(C)C(=O)C1C (stereo unspecified)	0.856

system: MHH-NB-11; test: cells; assay type: functional, cell-based, Homo sapiens; conditions: Homo sapiens, MHH-NB-11;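 note: growth inhibition of human MHH-NB-11 cells, read out by a cell viability assay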
Description: SANGER: Inhibition of human MHH-NB-11 cell growth in a cell viability assay.

Compound	IC50 [µM]
CC(C)CCN1c2nc(Nc3cc(F)c(O)c(F)c3)ncc2N(C)C(=O)C1C (stereo unspecified)	> 5

system: LB1047-RCC; test: cells; assay type: functional, cell-based, Homo sapiens; conditions: Homo sapiens, LB1047-RCC;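 note: inhibition of cell growth, determined with a cell viability assay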
Description: SANGER: Inhibition of human LB1047-RCC cell growth in a cell viability assay.

Compound	IC50 [µM]
CC(C)CCN1c2nc(Nc3cc(F)c(O)c(F)c3)ncc2N(C)C(=O)C1C (stereo unspecified)	4.1

system: SK-UT-1; test: cells; assay type: functional, cell-based, Homo sapiens; conditions: Homo sapiens, SK-UT-1;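 note: growth inhibition of SK-UT-1 cells, measured by a cell viability assay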
Description: SANGER: Inhibition of human SK-UT-1 cell growth in a cell viability assay.

Compound	IC50 [µM]
CC(C)CCN1c2nc(Nc3cc(F)c(O)c(F)c3)ncc2N(C)C(=O)C1C (stereo unspecified)	> 5

system: NB69; test: cells; assay type: functional, cell-based, Homo sapiens; conditions: Homo sapiens, NB69;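 note: growth inhibition of NB69 cells, determined by a cell viability assay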
Description: SANGER: Inhibition of human NB69 cell growth in a cell viability assay.

Compound	IC50 [µM]
CC(C)CCN1c2nc(Nc3cc(F)c(O)c(F)c3)ncc2N(C)C(=O)C1C (stereo unspecified)	> 5

system: VA-ES-BJ; test: cells; assay type: functional, cell-based, Homo sapiens; conditions: Homo sapiens, VA-ES-BJ;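 note: growth inhibition of the VA-ES-BJ cell line, read out by a cell viability assay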
Description: SANGER: Inhibition of human VA-ES-BJ cell growth in a cell viability assay.

Compound	IC50 [µM]
CC(C)CCN1c2nc(Nc3cc(F)c(O)c(F)c3)ncc2N(C)C(=O)C1C (stereo unspecified)	> 5

system: RPMI-8866; test: cells; assay type: functional, cell-based, Homo sapiens; conditions: Homo sapiens, RPMI-8866
Description: SANGER: Inhibition of human RPMI-8866 cell growth in a cell viability assay.

Compound	IC50 [µM]
CC(C)CCN1c2nc(Nc3cc(F)c(O)c(F)c3)ncc2N(C)C(=O)C1C (stereo unspecified)	> 5

system: ES1; test: cells; assay type: functional, cell-based, Homo sapiens; conditions: Homo sapiens, ES1;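 note: growth inhibition of ES1 cells, read out with a cell viability assay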
Description: SANGER: Inhibition of human ES1 cell growth in a cell viability assay.

Compound	IC50 [µM]
CC(C)CCN1c2nc(Nc3cc(F)c(O)c(F)c3)ncc2N(C)C(=O)C1C (stereo unspecified)	> 5

system: NKM-1; test: cells; assay type: functional, cell-based, Homo sapiens; conditions: Homo sapiens, NKM-1;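 note: growth inhibition of NKM-1 cells, read out with a cell viability assay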
Description: SANGER: Inhibition of human NKM-1 cell growth in a cell viability assay.

Compound	IC50 [µM]
CC(C)CCN1c2nc(Nc3cc(F)c(O)c(F)c3)ncc2N(C)C(=O)C1C (stereo unspecified)	> 5

system: SW872; test: cells; assay type: functional, cell-based, Homo sapiens; conditions: Homo sapiens, SW872;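 note: growth inhibition of SW872 cells, read out by a viability assay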
Description: SANGER: Inhibition of human SW872 cell growth in a cell viability assay.

Compound	IC50 [µM]
CC(C)CCN1c2nc(Nc3cc(F)c(O)c(F)c3)ncc2N(C)C(=O)C1C (stereo unspecified)	> 5

system: SNU1; test: cells; assay type: functional, cell-based, Homo sapiens; conditions: Homo sapiens, SNU1;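 note: growth inhibition of human NCI-SNU-1 cells, measured with a cell viability assay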
Description: SANGER: Inhibition of human NCI-SNU-1 cell growth in a cell viability assay.

Compound	IC50 [µM]
CC(C)CCN1c2nc(Nc3cc(F)c(O)c(F)c3)ncc2N(C)C(=O)C1C (stereo unspecified)	> 5

system: COLO-800; test: cells; assay type: functional, cell-based, Homo sapiens; conditions: Homo sapiens, COLO-800;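 note: growth inhibition of COLO-800 cells, read out with a cell viability assay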
Description: SANGER: Inhibition of human COLO-800 cell growth in a cell viability assay.

Compound	IC50 [µM]
CC(C)CCN1c2nc(Nc3cc(F)c(O)c(F)c3)ncc2N(C)C(=O)C1C (stereo unspecified)	2.54

system: LXF-289 cell line; test: cells; assay type: functional, cell-based, Homo sapiens; conditions: Homo sapiens, LXF-289
Description: SANGER: Inhibition of human LXF-289 cell growth in a cell viability assay.

Compound	IC50 [µM]
CC(C)CCN1c2nc(Nc3cc(F)c(O)c(F)c3)ncc2N(C)C(=O)C1C (stereo unspecified)	4.4

system: CTV-1; test: cells; assay type: functional, cell-based, Homo sapiens; conditions: Homo sapiens, CTV-1;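 note: growth inhibition of the cell line, read out with a cell viability assay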
Description: SANGER: Inhibition of human CTV-1 cell growth in a cell viability assay.

Compound	IC50 [µM]
CC(C)CCN1c2nc(Nc3cc(F)c(O)c(F)c3)ncc2N(C)C(=O)C1C (stereo unspecified)	0.479

system: CP66-MEL; test: cells; assay type: functional, cell-based, Homo sapiens; conditions: Homo sapiens, CP66-MEL;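 note: growth inhibition of CP66-MEL cells determined in a cell viability assay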
Description: SANGER: Inhibition of human CP66-MEL cell growth in a cell viability assay.

Compound	IC50 [µM]
CC(C)CCN1c2nc(Nc3cc(F)c(O)c(F)c3)ncc2N(C)C(=O)C1C (stereo unspecified)	> 5

system: A253 cell line; test: cells; assay type: functional, cell-based, Homo sapiens; conditions: Homo sapiens, A253;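 note: growth inhibition of A253 cells, read out with a cell viability assay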
Description: SANGER: Inhibition of human A253 cell growth in a cell viability assay.

Compound	IC50 [µM]
CC(C)CCN1c2nc(Nc3cc(F)c(O)c(F)c3)ncc2N(C)C(=O)C1C (stereo unspecified)	> 5

system: TGBC24TKB; test: cells; assay type: functional, cell-based, Homo sapiens; conditions: Homo sapiens, TGBC24TKB;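 note: growth inhibition of human TGBC24TKB cells, read out with a cell viability assay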
Description: SANGER: Inhibition of human TGBC24TKB cell growth in a cell viability assay.

Compound	IC50 [µM]
CC(C)CCN1c2nc(Nc3cc(F)c(O)c(F)c3)ncc2N(C)C(=O)C1C (stereo unspecified)	> 5

system: 697; test: cells; assay type: functional, cell-based, Homo sapiens; conditions: Homo sapiens
Description: SANGER: Inhibition of human 697 cell growth in a cell viability assay.

Compound	IC50 [µM]
CC(C)CCN1c2nc(Nc3cc(F)c(O)c(F)c3)ncc2N(C)C(=O)C1C (stereo unspecified)	2.02

system: ES7; test: cells; assay type: functional, cell-based, Homo sapiens; conditions: Homo sapiens, ES7;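 note: growth inhibition of cultured human ES7 cells, read out as cell viability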
Description: SANGER: Inhibition of human ES7 cell growth in a cell viability assay.

Compound	IC50 [µM]
CC(C)CCN1c2nc(Nc3cc(F)c(O)c(F)c3)ncc2N(C)C(=O)C1C (stereo unspecified)	0.916

system: NCI-H1648; test: cells; assay type: functional, cell-based, Homo sapiens; conditions: Homo sapiens, NCI-H1648;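 note: cell viability assay measuring inhibition of NCI-H1648 cell growth, from the Sanger screening data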
Description: SANGER: Inhibition of human NCI-H1648 cell growth in a cell viability assay.

Compound	IC50 [µM]
CC(C)CCN1c2nc(Nc3cc(F)c(O)c(F)c3)ncc2N(C)C(=O)C1C (stereo unspecified)	> 5

system: TE-12; test: cells; assay type: functional, cell-based, Homo sapiens; conditions: Homo sapiens, TE-12;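 note: growth inhibition of TE-12 cells, read out by a cell viability assay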
Description: SANGER: Inhibition of human TE-12 cell growth in a cell viability assay.

Compound	IC50 [µM]
CC(C)CCN1c2nc(Nc3cc(F)c(O)c(F)c3)ncc2N(C)C(=O)C1C (stereo unspecified)	> 5

system: no-11; test: cells; assay type: functional, cell-based, Homo sapiens; conditions: Homo sapiens;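 note: growth inhibition of human NO-11 cells, read out with a cell viability assay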
Description: SANGER: Inhibition of human no-11 cell growth in a cell viability assay.

Compound	IC50 [µM]
CC(C)CCN1c2nc(Nc3cc(F)c(O)c(F)c3)ncc2N(C)C(=O)C1C (stereo unspecified)	> 5

system: MHH-PREB-1; test: cells; assay type: functional, cell-based, Homo sapiens; conditions: Homo sapiens, MHH-PREB-1;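 note: cell viability assay measuring inhibition of proliferation of human MHH-PREB-1 cells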
Description: SANGER: Inhibition of human MHH-PREB-1 cell growth in a cell viability assay.

Compound	IC50 [µM]
CC(C)CCN1c2nc(Nc3cc(F)c(O)c(F)c3)ncc2N(C)C(=O)C1C (stereo unspecified)	4.4

system: LS-123; test: cells; assay type: functional, cell-based, Homo sapiens; conditions: Homo sapiens, LS-123
Description: SANGER: Inhibition of human LS-123 cell growth in a cell viability assay.

Compound	IC50 [µM]
CC(C)CCN1c2nc(Nc3cc(F)c(O)c(F)c3)ncc2N(C)C(=O)C1C (stereo unspecified)	> 5

system: EOL1; test: cells; assay type: functional, cell-based, Homo sapiens; conditions: Homo sapiens, EOL1;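 note: growth inhibition of EoL-1 cells, read out by a cell viability assay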
Description: SANGER: Inhibition of human EoL-1-cell cell growth in a cell viability assay.

Compound	IC50 [µM]
CC(C)CCN1c2nc(Nc3cc(F)c(O)c(F)c3)ncc2N(C)C(=O)C1C (stereo unspecified)	1.02

system: U-266; test: cells; assay type: functional, cell-based, Homo sapiens; conditions: Homo sapiens, U-266
Description: SANGER: Inhibition of human U-266 cell growth in a cell viability assay.

Compound	IC50 [µM]
CC(C)CCN1c2nc(Nc3cc(F)c(O)c(F)c3)ncc2N(C)C(=O)C1C (stereo unspecified)	4.61

system: EW-18; test: cells; assay type: functional, cell-based, Homo sapiens; conditions: Homo sapiens, EW-18;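 note: growth inhibition of EW-18 cells, read out by a cell viability assay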
Description: SANGER: Inhibition of human EW-18 cell growth in a cell viability assay.

Compound	IC50 [µM]
CC(C)CCN1c2nc(Nc3cc(F)c(O)c(F)c3)ncc2N(C)C(=O)C1C (stereo unspecified)	0.622

system: TE-8; test: cells; assay type: functional, cell-based, Homo sapiens; conditions: Homo sapiens, TE-8;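 note: growth inhibition of TE-8 cells, measured with a cell viability readout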
Description: SANGER: Inhibition of human TE-8 cell growth in a cell viability assay.

Compound	IC50 [µM]
CC(C)CCN1c2nc(Nc3cc(F)c(O)c(F)c3)ncc2N(C)C(=O)C1C (stereo unspecified)	3.19

system: BB49-HNC; test: cells; assay type: functional, cell-based, Homo sapiens; conditions: Homo sapiens, BB49-HNC;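 note: cell viability assay read-out, reported as inhibition of BB49-HNC cell growth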
Description: SANGER: Inhibition of human BB49-HNC cell growth in a cell viability assay.

Compound	IC50 [µM]
CC(C)CCN1c2nc(Nc3cc(F)c(O)c(F)c3)ncc2N(C)C(=O)C1C (stereo unspecified)	> 5

system: CCRF-CEM; test: cells; assay type: functional, cell-based, Homo sapiens; conditions: Homo sapiens, CCRF-CEM;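 note: inhibition of CCRF-CEM cell growth, measured by a cell viability assay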
Description: SANGER: Inhibition of human CCRF-CEM cell growth in a cell viability assay.

Compound	IC50 [µM]
CC(C)CCN1c2nc(Nc3cc(F)c(O)c(F)c3)ncc2N(C)C(=O)C1C (stereo unspecified)	> 5

system: HDLM-2; test: cells; assay type: functional, cell-based, Homo sapiens; conditions: Homo sapiens, HDLM-2;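 note: cell viability assay measuring suppression of HDLM-2 proliferation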
Description: SANGER: Inhibition of human HDLM-2 cell growth in a cell viability assay.

Compound	IC50 [µM]
CC(C)CCN1c2nc(Nc3cc(F)c(O)c(F)c3)ncc2N(C)C(=O)C1C (stereo unspecified)	> 5

system: DSH1; test: cells; assay type: functional, cell-based, Homo sapiens; conditions: Homo sapiens, DSH1;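 note: growth inhibition of human DSH1 cells, measured with a cell viability readout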
Description: SANGER: Inhibition of human DSH1 cell growth in a cell viability assay.

Compound	IC50 [µM]
CC(C)CCN1c2nc(Nc3cc(F)c(O)c(F)c3)ncc2N(C)C(=O)C1C (stereo unspecified)	> 5

system: COLO-684; test: cells; assay type: functional, cell-based, Homo sapiens; conditions: Homo sapiens, COLO-684
Description: SANGER: Inhibition of human COLO-684 cell growth in a cell viability assay.

Compound	IC50 [µM]
CC(C)CCN1c2nc(Nc3cc(F)c(O)c(F)c3)ncc2N(C)C(=O)C1C (stereo unspecified)	> 5

system: SW982; test: cells; assay type: functional, cell-based, Homo sapiens; conditions: Homo sapiens, SW982;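 note: growth inhibition of SW982 cells, read out with a cell viability assay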
Description: SANGER: Inhibition of human SW982 cell growth in a cell viability assay.

Compound	IC50 [µM]
CC(C)CCN1c2nc(Nc3cc(F)c(O)c(F)c3)ncc2N(C)C(=O)C1C (stereo unspecified)	> 5

system: GT3TKB; test: cells; assay type: functional, cell-based, Homo sapiens; conditions: Homo sapiens, GT3TKB;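 note: growth inhibition of the cell line, read out with a cell viability assay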
Description: SANGER: Inhibition of human GT3TKB cell growth in a cell viability assay.

Compound	IC50 [µM]
CC(C)CCN1c2nc(Nc3cc(F)c(O)c(F)c3)ncc2N(C)C(=O)C1C (stereo unspecified)	3.76

system: ONS-76; test: cells; assay type: functional, cell-based, Homo sapiens; conditions: Homo sapiens, ONS-76;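 note: growth inhibition of human ONS-76 cells, read out with a cell viability assay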
Description: SANGER: Inhibition of human ONS-76 cell growth in a cell viability assay.

Compound	IC50 [µM]
CC(C)CCN1c2nc(Nc3cc(F)c(O)c(F)c3)ncc2N(C)C(=O)C1C (stereo unspecified)	> 5

system: TGBC1TKB; test: cells; assay type: functional, cell-based, Homo sapiens; conditions: Homo sapiens, TGBC1TKB;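 note: growth inhibition of TGBC1TKB cells, read out by a cell viability assay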
Description: SANGER: Inhibition of human TGBC1TKB cell growth in a cell viability assay.

Compound	IC50 [µM]
CC(C)CCN1c2nc(Nc3cc(F)c(O)c(F)c3)ncc2N(C)C(=O)C1C (stereo unspecified)	> 5

system: KLE; test: cells; assay type: functional, cell-based, Homo sapiens; conditions: Homo sapiens, KLE;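 note: growth inhibition of human KLE cells, read out with a cell viability assay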
Description: SANGER: Inhibition of human KLE cell growth in a cell viability assay.

Compound	IC50 [µM]
CC(C)CCN1c2nc(Nc3cc(F)c(O)c(F)c3)ncc2N(C)C(=O)C1C (stereo unspecified)	> 5

system: SF-126; test: cells; assay type: functional, cell-based, Homo sapiens; conditions: Homo sapiens, SF-126;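 note: growth inhibition of human SF126 cells, read out with a cell viability assay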
Description: SANGER: Inhibition of human SF126 cell growth in a cell viability assay.

Compound	IC50 [µM]
CC(C)CCN1c2nc(Nc3cc(F)c(O)c(F)c3)ncc2N(C)C(=O)C1C (stereo unspecified)	> 5

system: COLO-668; test: cells; assay type: functional, cell-based, Homo sapiens; conditions: Homo sapiens, COLO-668
Description: SANGER: Inhibition of human COLO-668 cell growth in a cell viability assay.

Compound	IC50 [µM]
CC(C)CCN1c2nc(Nc3cc(F)c(O)c(F)c3)ncc2N(C)C(=O)C1C (stereo unspecified)	> 5

system: COLO-829; test: cells; assay type: functional, cell-based, Homo sapiens; conditions: Homo sapiens, COLO-829
Description: SANGER: Inhibition of human COLO-829 cell growth in a cell viability assay.

Compound	IC50 [µM]
CC(C)CCN1c2nc(Nc3cc(F)c(O)c(F)c3)ncc2N(C)C(=O)C1C (stereo unspecified)	3.67

system: GB-1; test: cells; assay type: functional, cell-based, Homo sapiens; conditions: Homo sapiens, GB-1;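 note: growth of GB-1 cells judged by a viability assay, IC50 marks the concentration inhibiting growth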
Description: SANGER: Inhibition of human GB-1 cell growth in a cell viability assay.

Compound	IC50 [µM]
CC(C)CCN1c2nc(Nc3cc(F)c(O)c(F)c3)ncc2N(C)C(=O)C1C (stereo unspecified)	> 5

system: KNS-81-FD; test: cells; assay type: functional, cell-based, Homo sapiens; conditions: Homo sapiens, KNS-81-FD;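 note: growth inhibition of KNS-81-FD cells, read out with a cell viability assay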
Description: SANGER: Inhibition of human KNS-81-FD cell growth in a cell viability assay.

Compound	IC50 [µM]
CC(C)CCN1c2nc(Nc3cc(F)c(O)c(F)c3)ncc2N(C)C(=O)C1C (stereo unspecified)	> 5

system: SCC-15; test: cells; assay type: functional, cell-based, Homo sapiens; conditions: Homo sapiens, SCC-15;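 note: growth inhibition of SCC-15 cells, read out with a cell viability assay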
Description: SANGER: Inhibition of human SCC-15 cell growth in a cell viability assay.

Compound	IC50 [µM]
CC(C)CCN1c2nc(Nc3cc(F)c(O)c(F)c3)ncc2N(C)C(=O)C1C (stereo unspecified)	> 5
